Measured values from PMC12040169 (PLOS Biology, 2025).

Assay: in vitro
Conditions: human, hela cells, % viability

Compared with `CC(C)c1ccc(N2C(=O)[C@@H]3C[C@@H](NC(=O)c4cccn4C)CCN3C2=O)cc1` [CBK289547], `CN(C(=O)Cn1cccc(C(=O)NCC(C)(C)c2ccc(F)cc2)c1=O)C1CCCCC1` [CBK286112] is higher in viability at 28.5 h, 10 µM: 92.3% for the first, 108% for the second.

Compared with `O=C(O)CCn1cc(/C=C2\SC(=S)NC2=O)c(-c2cccc(Br)c2)n1` [CBK265287], `O=C(O)CCC(=O)Nc1nc(-c2ccccc2)cs1` [CBK286947] is lower in viability at 28.5 h, 10 µM: 110% for the first, 109% for the second.

Going from `Cn1cc(-c2nc(C(=O)NC3CCCN(c4ncccn4)C3)cs2)cn1` (stereo not drawn) [CBK305629] to `Cn1c(Cc2csc(N)n2)nnc1SCC(=O)NC1CCCCC1` [CBK268787], the viability at 28.5 h, 10 µM rises from 77.7% to 84.3%.

Going from `O=c1cc(-c2cccc([N+](=O)[O-])c2)c2ccc(OCc3cc4c(cc3Cl)OCO4)cc2o1` [CBK265652] to `Cc1cccc(C)c1N1CCN(CC(O)COc2ccc3c(C)cc(=O)oc3c2)CC1` (stereo not drawn) [CBK270084], the viability at 28.5 h, 10 µM falls from 92.1% to 91.2%.

Going from `CCc1nnc(NS(=O)(=O)c2ccc(NCc3cc(Cl)cc(Cl)c3O)cc2)s1` [CBK126494] to `O=C(Nc1ccc2ncccc2c1)c1ccc(Cl)cc1Cl` [CBK159793], the viability at 28.5 h, 10 µM falls from 112% to 96.5%.

First: Cc1cnc2c(Cl)c(C(=O)NCC(F)(F)F)nn2c1 [CBK307391]
Second: CC1CCN(Cc2ccc(-c3nnn(CC(=O)NCc4ccc(C(F)(F)F)nc4)n3)cc2)CC1 [CBK149721T]
The viability at 28.5 h, 10 µM of the first is lower: 93.1% for the first, 112% for the second.

Going from `Cc1cc(O)c(C(=O)Nc2cccc(Cl)c2)c(=O)n1Cc1ccco1` [CBK291143] to `Cc1c(C(=O)Nc2cccc(-c3nc4ccccc4s3)c2)sc2nc[nH]c(=O)c12` [CBK285825], the viability at 28.5 h, 10 µM falls from 91.2% to 80.5%.

First: CCn1cc(CN(CCN(C)C)Cc2cccs2)c(C)n1 [CBK283037]
Second: CCCn1cnnc1C(C)NC(=O)N(C)Cc1nc2cccc(C)c2[nH]1 (stereo not drawn) [CBK307551]
The viability at 28.5 h, 10 µM of the first is lower: 101% for the first, 112% for the second.

Going from `CN(C)CC1CCCN(C(=O)c2cc3cc(F)ccc3n2C)C1` (stereo not drawn) [CBK282122] to `CN(C)CCN1CCN(c2nc(-c3cccc(C(N)=O)c3)cnc2N)CC1` [CBK063537], the viability at 28.5 h, 10 µM rises from 85.6% to 97.8%.

Going from `CCNS(=O)(=O)c1ccc2c(c1)N(Cc1nc(-c3ccco3)no1)CC2` [CBK306184] to `C[C@@H]1CN[C@@H](C)CN1Cc1cc(NS(=O)(=O)c2ccccc2Cl)cc2ccoc12` [CBK107211T], the viability at 28.5 h, 10 µM rises from 81.1% to 98.6%.

Compared with `N#CCCCN1CCN(c2nccnc2OCc2cccnc2)CC1` [CBK083144], `Clc1ccc(COc2nccnc2OCCOc2ccccc2)cc1Cl` [CBK161853] is lower in viability at 28.5 h, 10 µM: 96.3% for the first, 92.5% for the second.

Compared with `CC(=O)Oc1cc(C)cc(C#N)c1` [CBK038296], `CSc1cccc(C(=O)Nc2sc3c(c2C#N)CCN(C(C)=O)C3)c1` [CBK304390] is lower in viability at 28.5 h, 10 µM: 87.6% for the first, 56% for the second.

Compared with `Cc1ccc(C(=O)Nc2ccc(S(=O)(=O)N3CCCC3)cc2)cc1S(=O)(=O)Nc1ccccc1` [CBK268054], `CN(CC(=O)Nc1ccccc1N1CCCC1)Cc1cnn(Cc2ccccc2)c1` [CBK295187] is higher in viability at 28.5 h, 10 µM: 47.4% for the first, 105% for the second.

Compared with `NNC(=O)Cn1c(-c2ccccn2)nc2ccccc21` [CBK263489], `Nc1nnc(SCC(=O)c2ccc3ccccc3c2)s1` [CBK266120] is lower in viability at 28.5 h, 10 µM: 108% for the first, 97.7% for the second.

Going from `Cc1ccn(-c2ccc(N3CCC(OC4CCCC4)CC3)nn2)n1` [CBK306301] to `COc1ccc(-c2nnc(SCC(=O)Nc3cc(C)on3)n2C2CCCCC2)cc1` [CBK297510], the viability at 28.5 h, 10 µM falls from 96% to 84.1%.

Going from `Cc1ccccc1OCc1nn2c(COc3ccccc3)nnc2s1` [CBK267230] to `CC(Oc1ccccc1)c1nnc(SCC(=O)Nc2ccc(Br)c(Cl)c2)n1C` (stereo not drawn) [CBK266299], the viability at 28.5 h, 10 µM rises from 85.4% to 113%.

First: O=C(COc1ccccc1[N+](=O)[O-])Nc1cc(C(=O)O)cc(C(=O)O)c1 [CBK263983]
Second: COC(C)(C(=O)Nc1ccc(Cl)nc1)c1cccc2ccccc12 (stereo not drawn) [CBK091350]
The viability at 28.5 h, 10 µM of the first is lower: 93.9% for the first, 102% for the second.

Compared with `CS(=O)(=O)N/N=C/c1ccc(Cl)cc1Cl` [CBK026420], `CN(C1CCCCC1)S(=O)(=O)c1cc(Cl)ccc1Cl` [CBK261744] is higher in viability at 28.5 h, 10 µM: 105% for the first, 118% for the second.

First: CC(=O)c1c(C)nc2nc(-c3ccncc3)nn2c1C [CBK288552]
Second: Cc1sc(-c2ccc(Cl)nc2)nc1OC(=O)c1cccs1 [CBK067733]
The viability at 28.5 h, 10 µM of the first is higher: 106% for the first, 94.5% for the second.

Going from `O=C(CC(C(=O)O)n1cnc([N+](=O)[O-])n1)c1ccc(Br)cc1` (stereo not drawn) [CBK267524] to `Nn1cnn2c(SCC(=O)c3ccccc3)nnc12` [CBK263194], the viability at 28.5 h, 10 µM rises from 89% to 99.8%.

First: Cc1ccc2[nH]c(-c3cncn3C(C)CN3CCOCC3)c(C)c2c1 (stereo not drawn) [CBK281794]
Second: Cn1ccc(C2CCCCCN2S(=O)(=O)c2ccc3[nH]c(=O)[nH]c(=O)c3c2)n1 (stereo not drawn) [CBK286407]
The viability at 28.5 h, 10 µM of the first is higher: 103% for the first, 71.1% for the second.

Going from `COc1ccc(Cl)cc1N1CCN(CCN2CCCCC2)CC1` [CBK126445] to `Cc1cc(NC(=O)CN2CCN(Cc3ccc(Cl)nc3)CC2)no1` [CBK305504], the viability at 28.5 h, 10 µM rises from 100% to 104%.

First: O=c1ccccn1COCc1ccccc1 [CBK006438]
Second: O=[N+]([O-])c1ccc(Cl)c(C2N(Cc3ccccc3)CCN2Cc2ccccc2)c1 [CBK261601]
The viability at 28.5 h, 10 µM of the first is higher: 103% for the first, 93.4% for the second.

Compared with `Cc1ccc(S(=O)(=O)N(C)c2ccnc(N3CCN(C)CC3)n2)cc1` [CBK000671], `CC(CCCC(C)(C)O)Nc1cc(N2CCN(C)CC2)n2nccc2n1` (stereo not drawn) [CBK037103] is lower in viability at 28.5 h, 10 µM: 99.4% for the first, 98.2% for the second.

First: Cn1ncc(Cl)c1C1CCCCCN1C(=O)c1ccco1 (stereo not drawn) [CBK284915]
Second: O=C(NC(=O)N1CCSC1)c1c(Cl)cccc1Cl [CBK028794]
The viability at 28.5 h, 10 µM of the first is higher: 104% for the first, 85.3% for the second.

Compared with `O=C(Cc1cccs1)N1CCC(n2nc(C3CC3)ccc2=O)CC1` [CBK284243], `CC(=O)N1CCC(O)(Cn2c(C3CC3)cc3cccnc32)CC1` [CBK283082] is higher in viability at 28.5 h, 10 µM: 78.6% for the first, 111% for the second.

Compared with `O=C(Nc1ccc(F)cc1Cl)c1cnc2n(c1=O)CCS2` [CBK287382], `Oc1ccc(-n2ncc(-c3ccc(F)cc3F)n2)cc1` [CBK112736] is lower in viability at 28.5 h, 10 µM: 104% for the first, 98% for the second.

Going from `CC(C)n1nnnc1-c1ccccc1NS(=O)(=O)c1cn[nH]c1` [CBK305542] to `C[C@H](c1ccccc1)n1c(=O)[nH]c2ncc(-c3ccc(N(C)C)cc3)nc21` [CBK064367], the viability at 28.5 h, 10 µM rises from 88.6% to 102%.

Going from `CC[C@H]1CN(C(=O)C2CC2)CC[C@H]1CC(=O)NCc1ccc2c(c1)OCO2` [CBK289133] to `N#CCCN(C(=O)NC1CCc2ccccc21)C1CCCCC1` (stereo not drawn) [CBK156383], the viability at 28.5 h, 10 µM rises from 91.9% to 95.5%.

Compared with `CCCNC(=O)CSc1ncccc1C(=O)O` [CBK287202], `COc1ccccc1CN(Cc1cccnc1)C(=O)CNC(C)=O` [CBK306843] is higher in viability at 28.5 h, 10 µM: 78.6% for the first, 96.2% for the second.

First: OCCN(CCO)c1cncc(-c2cccc3ccccc23)n1 [CBK065812]
Second: CCOc1ccc2nc(NC(=O)c3nc(SCc4ccccc4)ncc3Cl)sc2c1 [CBK269109]
The viability at 28.5 h, 10 µM of the first is lower: 84.5% for the first, 97.1% for the second.

First: O=[N+]([O-])c1ccc(O)c(C(C#Cc2ccccc2)N2CCOCC2)c1 (stereo not drawn) [CBK262741]
Second: CCN1CCN(C(=O)c2c(-c3ccccc3)noc2C)CC1 [CBK200251]
The viability at 28.5 h, 10 µM of the first is lower: 93.2% for the first, 96.5% for the second.

Going from `CCOC(=O)C1CSCCN1C(=O)c1cc(C)n(-c2nccs2)c1C` (stereo not drawn) [CBK305884] to `Cc1cc2c(s1)c1cnn(CC(=O)OC(C)C)c(=O)c1n2C` [CBK284247], the viability at 28.5 h, 10 µM rises from 75% to 102%.

First: CC(C)Nc1cncc(OC2CCOC2)n1 (stereo not drawn) [CBK115882]
Second: Cc1nc(N)nc(N[C@@H]2CCOC[C@H]2OCCN(C)C)c1Cl [CBK307024]
The viability at 28.5 h, 10 µM of the first is higher: 102% for the first, 88.7% for the second.

Going from `COc1cc(C(=O)N2CCC3(CC2)CC(=O)c2cc(-c4ccc(N(C)C)cc4)ccc2O3)cc(OC)c1C` [CBK170663] to `COc1ccc(N2CCN(c3cc(-c4ccc(OC(F)(F)F)cc4)ncn3)CC2)cc1OC` [CBK091032], the viability at 28.5 h, 10 µM falls from 108% to 94.1%.

First: COc1cccc(N2CCN(C(C(=O)O)c3cn(C)c4cc(C(=O)O)ccc34)CC2)c1 (stereo not drawn) [CBK286701]
Second: COCCNC(=O)N1CCN(c2ccccc2)CC1 [CBK155181]
The viability at 28.5 h, 10 µM of the first is higher: 114% for the first, 96.1% for the second.

Going from `COc1nc2ccn(CCC3CCOC3)c(=O)c2cc1C#N` (stereo not drawn) [CBK307343] to `C=CCn1cc(CN2CCc3c(nc(C)[nH]c3=O)C2)c2ccccc21` [CBK283992], the viability at 28.5 h, 10 µM falls from 101% to 97.5%.

Compared with `CC(C)[C@@H]1C[C@H](C(F)(F)F)n2nc(C3CCCNC3)cc2N1` (stereo partly drawn) [CBK283056], `O=C1NC(=O)C(CC(=O)N2CCC3(CCCNC3)C2)N1` (stereo not drawn) [CBK153232C] is lower in viability at 28.5 h, 10 µM: 98.6% for the first, 79.2% for the second.

Going from `OCCOc1ccc(Cl)c2cccnc12` [CBK000620] to `Clc1cccc(CNc2nccnc2-c2ccoc2)c1` [CBK036616], the viability at 28.5 h, 10 µM rises from 78.1% to 105%.

First: CNC(=S)Nc1ncn(Cc2cccc(F)c2)n1 [CBK288368]
Second: c1ccc(-c2nccnc2NCC2CC2)cc1 [CBK088539]
The viability at 28.5 h, 10 µM of the first is higher: 106% for the first, 88.4% for the second.

Going from `c1ccc2sc(SCc3nc4c5c6c(sc5ncn4n3)CCCC6)nc2c1` [CBK262923] to `Nc1ccc2ccc(-c3ccc4c(c3)CCO4)nc2n1` [CBK067625], the viability at 28.5 h, 10 µM falls from 92.5% to 90%.

First: O=C(O)CNC(=O)CN1C(=O)c2cc(Cl)c(Cl)cc2C1=O [CBK287156]
Second: Nc1ncc(-c2cccc(/C=C/C(=O)O)c2)nc1NCCCO [CBK063887]
The viability at 28.5 h, 10 µM of the first is lower: 92.3% for the first, 103% for the second.

Going from `OCc1nc2cc3cn[nH]c3cc2[nH]1` [CBK016203] to `Oc1ccc(Nc2cc(-c3ccc(Cl)cc3)ncn2)cc1` [CBK090751], the viability at 28.5 h, 10 µM rises from 86.5% to 94.3%.

Going from `Cc1c(C)n2c(SCC(=O)N3CCCC3)nnc2[nH]c1=O` [CBK287686] to `O=C(C1CC2C=CC1C21CC1)N1CCC(Oc2ccccc2F)CC1` (stereo not drawn) [CBK282179], the viability at 28.5 h, 10 µM rises from 99.4% to 103%.

Same assay, conditions: human, hela cells, % viability, bulk resorufin, single well

First: O=C1NC(=O)C(CCc2ccncc2)(Cc2ccc3c(c2)OCO3)C(=O)N1CCc1ccccc1 (stereo not drawn) [CBK266307]
Second: CCOC(=O)C1CCN(/C=C2/C(=O)NC(=S)N(c3ccccc3F)C2=O)CC1 [CBK265142]
The viability at 28.5 h, 10 µM of the first is higher: 105% for the first, 102% for the second.
